In US20030100494A1, “Nerve protective drugs” (priority 1999, published 2003):
Non-standard residues stand in square brackets, D forms with d. Residues, ends and D or L forms follow the SMILES beside them. dTrp(2-Me) = Cc1[nH]c2ccccc2c1C[C@@H](N)C(=O)O; d2Nal = N[C@H](Cc1ccc2ccccc2c1)C(=O)O

Legend:
[1] = system: rat ischemia-reperfusion cerebral infarction models; experiment: rat ischemia-reperfusion cerebral infarction model after transient obstruction of middle cerebral artery; format: in vivo
Experimental: Preventive and therapeutic effect of KP-102 in rat ischemia-reperfusion cerebral infarction models after transient obstruction of middle cerebral artery
The effect of the growth hormone secretion promoting substance was evaluated using ischemia-reperfusion cerebral infarction models, which are general pathological models of diseases involving degeneration or death of nerve cells, such as cerebral ischemia, cerebral infarction and cerebral edema. KP-102 was used as a typical example of the growth hormone secretion promoting substance.
KP-102 (synthetic product) was dissolved in physiological saline (JP) to a concentration of 24 μg/ml. Other reagents used were halothane (JP: Takeda Chem. Ind.), triphenyltetrazolium chloride (TTC, Nacalai tesque), Dulbecco PBS(−) (Nissui Pharmaceutical) and low viscosity dental impression silicone (XANTOPRENRL, imported by Hereus Dental Material, Osaka). A 1% TTC solution was prepared by dissolving TTC in an isotonic phosphate buffer solution (pH 7.4) which had been prepared by dissolving PBS(−) powder in distilled water.
Male Wistar rats (Charles River Japan, INC.), 9 weeks old and weighing about 300 g, were used as experimental animals.
Obstruction of the middle cerebral artery was performed in accordance with the method of Koizumi et al. (Jpn. J. Stroke (1986)8:1-8) and the method of Longa et al. (Stroke (1989)20:84-91). Anesthesia was performed with 2% halothane in a 30% oxygen/70% nitrous oxide mixed gas. A cannula for administration of a test material had been inserted into the right femoral vein, and the other end of the cannula delivered to the poll. After several hours or more, the animals were anesthetized again, and set in a supine position. A median incision of the neck was made, and connective tissues around the right common carotid artery, the internal carotid artery, and the external carotid artery were ablated. The distal end of the external carotid artery and the external carotid artery were ligated with a suture, and blood flow in the common carotid artery was blocked with a clip. The following procedure was performed, with measures for prevention of bleeding being taken: A small incision was made in the external carotid artery, and a plug comprising a 5 mm front end of a surgical 4-0 nylon thread coated with dental silicone was inserted toward the internal carotid artery as far as a site where a slight resistance was felt. As a result, the middle cerebral artery (hereinafter referred to as MCA) was occluded, at its point of origin, with the plug. The plug was fixed in the internal carotid artery with a clip. The incision wound was closed and anesthesia was stopped to awake the animals. Anesthesia was performed again 70 minutes after MCA occlusion, the plug was detached 75 minutes later to restore blood flow in MCA, and the end of the external carotid artery proximal to the incision site was closed for prevention of bleeding. Blood flow in the common carotid artery was restored 10 minutes later. The incision site of the skin was closed with a Michel needle, and the animals were recovered from anesthesia.
The cannula for administration of the test material was connected to a free moving device (TCS2-21, Tsumura). […]

[2] = influence on blood pressure and heart rate; settings: in vivo
[3] = system: Rat hippocampal nerve cells; experiment: ionomycin-induced death of cultured rat hippocampal nerve cells (WST-8 cell survival rate); settings: for inhibition of cell death induced by ionomycin at a single concentration: each 0.1 μM, 3 μM ionomycin, FIGS. 6a and 6b
Experimental: The solution was used after dilution to predetermined concentrations with distilled water for injection (JP, Otsuka Pharmaceutical) containing 1 mg/mL of bovine serum albumin (SIGMA). Rat type ghrelin (Peptide Institute) was used after dilution to predetermined concentrations with water for injection containing 1 mg/mL of bovine serum albumin. Other reagents used were L-15 culture medium, D-MEM/F-12 culture medium, MEM culture medium, Neuro Basal culture medium, B-27 supplement, horse serum, newborn calf serum, L-glutamine (all of the foregoing products of GIBCO), L-cysteine, ionomycin, calf serum albumin, DNase I (all of the foregoing products of SIGMA), glucose, viable cell count determination reagent SF (all of the foregoing products of Nacalai tesque), and papain (Worthington Biochemical).
Animals used were fetal rats on the 20th fetal day gestated in Wistar/ST definitively pregnant rats (15-18 days pregnant, Japan SLC).
Rat hippocampal nerve cells were isolated in accordance with the method of Hatanaka et al. (Hatanaka, H. and Tsukui, H., Dev. Brain. Res. 30(1986)47). Brains were removed from Wistar/ST fetal rats (20 fetal days), and soaked in cold L-15 medium. The meninges were ablated under microscope, and the hippocampus was cut out. Hippocampal tissue was transferred into a test tube containing the L-15 medium, and the test tube was centrifuged for 3 minutes at 700 rpm. Then, the supernatant was removed, and phosphate buffer (pH 7.2) containing papain (0.5 mg/mL), bovine serum albumin (0.2 mg/mL), cysteine (0.2 mg/mL), glucose (5 mg/mL) and DNase I (0.01%) was added, followed by incubating the mixture for 15 minutes at 37° C. Then, horse serum was added, and the mixture was centrifuged for 3 minutes at 700 rpm. Then, the supernatant was removed, D-MEM/F-12 medium was added, and the cells were dispersed by pipetting. After centrifugation for 5 minutes at 700 rpm, the dispersed cells were redispersed in D-MEM/F-12 medium containing 5% newborn calf serum and 5% horse serum, and inoculated in a polyethyleneimine-coated 48-well culture plate (Nunc) at a rate of 4×10^5 cells/cm^2. The cells were cultured in a culture incubator (37° C., 5% CO2-95% air). On the 2nd day of culturing, the culture medium was replaced by Neuro Basal medium containing 2 mM of glutamine and B-27 supplement. Then, the medium was replaced at intervals of 4 days.
Cells on the 14th day of culturing were used in experiments. The culture medium was replaced by a B-27-free MEM medium, and the cells were incubated for 30 minutes. Then, a solvent (dimethyl sulfoxide) and a test compound were added, and the system was incubated for 30 minutes (procedure 1). Then, 3 μM of ionomycin was added, and the mixture was incubated for 30 minutes (procedure 2). The culture medium was washed, and replaced by Neuro Basal medium containing B-27 supplement, and the system was cultured for 18 hours (procedure 3). In examining the effect of post-treatment, the solvent and the test compound were not added in procedure 1, but added 30 minutes after replacement of the medium in procedure 3.

[4] = KP-102 total 0.16 mg/kg i.v., 72 hours after reperfusion, FIG. 1

C[C@H](NC(=O)[C@@H](Cc1ccc2ccccc2c1)NC(=O)[C@@H](C)N)C(=O)N[C@@H](Cc1c[nH]c2ccccc12)C(=O)N[C@H](Cc1ccccc1)C(=O)N[C@@H](CCCCN)C(N)=O [KP-102, D-alanyl-3-(2-naphthalenyl)-D-alanyl-L-alanyl-L-tryptophyl-D-phenylalanyl-L-lysineamide] (H-[dA][d2Nal]AW[dF]K-NH2)
cerebral infarct size, cortex [1, 4]: effect of shrinking the infarct was observed
cerebral infarct size, medulla [1, 4]: effect of shrinking the infarct was observed
percent cerebral infarction volume for the entire cerebrum ([1]; vs control group, KP-102 total 0.16 mg/kg i.v. infusion beginning 30 minutes after MCA occlusion, 72 hours after reperfusion, FIG. 1, P<0.05 Mann-Whitney): significantly smaller
percent edema ([1]; vs control group, KP-102 total 0.16 mg/kg i.v., 72 hours after reperfusion, FIG. 2, no significant differences, P=0.087): tendency toward suppression
score of neurologic symptoms ([1]; vs control group, KP-102 total 0.16 mg/kg i.v., after reperfusion, normal score 33 points, FIG. 3, P<0.05): significantly higher
influence on blood pressure [2]: does not influence
influence on heart rate [2]: does not influence
inhibition of cell death, compound applied after ionomycin treatment ([3]; applied 30 minutes after replacement of the ionomycin-treated culture medium, FIG. 4b): cell death inhibiting action was also confirmed
inhibition of cell death induced by 3 μM of ionomycin, compound applied 30 minutes before ionomycin ([3]; concentrations of 0.01 to 1 μM, dose-dependent, FIG. 4a): inhibited cell death

NCC(O)CNC(=O)[C@@H](Cc1ccc2ccccc2c1)NC(=O)CCN1C(=O)c2ccccc2CCc2ccccc21 (stereo partly drawn) [S-37555, N-[1(R)-(3-amino-2-hydroxy-propylcarbamoyl)-2-yl-ethyl]-3-(6-oxo-11,12-dihydro-6H-dibenzo[b,f]azocinn-5-yl)-propionamide]
inhibition of cell death induced by ionomycin at a single concentration [3]: clear action of inhibiting cell death

CC(C)(C)C(=O)N1CCC[C@H]1C(=O)N[C@H](Cc1ccc2ccccc2c1)C(=O)NCC(O)CN (stereo partly drawn) [S-38855, N-(3-amino-2-hydroxypropyl)-2(R)-[1-(2,2-dimethylpropionyl)pyrrolidine-2(S)-carbonylamino]-3-naphthalen-2-yl-propionamide]
inhibition of cell death induced by ionomycin at a single concentration [3]: clear action of inhibiting cell death

CCC(CC)C(=O)N1CCC[C@@H]1C(=O)N[C@@H](Cc1ccc2ccccc2c1)C(=O)NCC(O)CN (stereo partly drawn) [S-39100, N-(3-amino-2-hydroxypropyl)-2(S)-[1-(2-ethylbutyryl)pyrrolidine-2(R)-carbonylamino]-3-naphthalen-2-yl-propionamide]
inhibition of cell death induced by ionomycin at a single concentration [3]: clear action of inhibiting cell death

Cc1[nH]c2ccccc2c1C[C@@H](NC(=O)[C@@H](N)Cc1c[nH]cn1)C(=O)N[C@@H](C)C(=O)N[C@@H](Cc1c[nH]c2ccccc12)C(=O)N[C@H](Cc1ccccc1)C(=O)N[C@@H](CCCCN)C(N)=O [hexarelin, L-histidyl-2-methyl-D-tryptophyl-L-alanyl-L-tryptophyl-D-phenylalanyl-L-lysineamide, reference compound] (H-H[dTrp(2-Me)]AW[dF]K-NH2)
inhibition of cell death induced by ionomycin at a single concentration [3]: clear action of inhibiting cell death
